Experimental data published in US20120283293A1, “Methods of neuroprotection involving Prostaglandin E2 EP4 (PGE2 EP4) receptor activation” (The Board of Trustees of the Leland Stanford Junior …, priority 2011, published 2012).

What was measured:
[1] = test system: BV-2 cells; experiment: Griess assay of nitrite production (NOS activity) in LPS-treated BV-2 cells; assay type: cell-based, murine
Method: Nitric oxide synthase (NOS) activity was measured using the Griess assay to measure nitrite production (Promega, Madison, Wis.). BV-2 cells were plated at 5×10^4 cells/well in 24-well plates, allowed to reach 90% confluence, and incubated +/−LPS (10 ng/ml)+/−AE1-329 (1 nM-1 μM) or vehicle for 24 h. […] cell culture medium and nitrite standards ([…]) were transferred to a 96-well plate and mixed with 50 μl sulphanilamide solution and 50 μl NED solution. After a 10 min incubation at room temperature, absorbance was read at 530 nm on a SpectraMax M5 plate reader (Molecular Devices, Sunnyvale, Calif.). Experiments were repeated in triplicate.
Inflammatory stimuli such as LPS can activate microglia through the CD14/TLR4 receptor complex and induce the expression of pro-inflammatory enzymes and cytokines (Fassbender et al., 2004; Walter et al., 2007). LPS-induced inflammatory responses were tested in the absence and presence of pharmacologic activation of EP4 receptor with the selective EP4 agonist AE1-329. BV-2 cells were treated with LPS (10 ng/ml) in the presence or absence of the selective EP4 agonist AE1-329 (1 μM) for 6 h, and pro-inflammatory gene expression was measured using qPCR (see FIG. 2). […] In FIG. 2D, EP4 regulation of iNOS activity was investigated.

[2] = test system: EP4 receptor; details: Suzawa et al., 2000; Shibuya et al., 2002; cited from earlier work
[3] = test system: microglia isolated from adult mouse brain; experiment: inflammatory gene expression in microglia isolated from adult brain of LPS-treated mice; assay type: in vivo; details: 2-3 mo C57B6 male mice, LPS 5 mg/kg i.p., AE1-329 0.3 mg/kg subcutaneously, microglia harvested at 6 hours
Method: qPCR was carried out as previously described (Liang et al., 2008). Briefly, total RNA was isolated using Trizol reagent (Invitrogen, Carlsbad, Calif.), treated with DNAse (Invitrogen), and the reaction was terminated by heating at 65° C. for 10 minutes. First strand cDNA synthesis was performed with 1.5 μg of total RNA, 4 units of Omniscript enzyme (Qiagen, Valencia, Calif.) and 0.25 μg of random primer in a reaction volume of 20 μl at 37° C. for 1 hour. Reverse transcribed cDNA was diluted 1:20 in RNAse free ddH2O for subsequent RT-PCR. The mRNA level for each target gene was quantified by SYBR Green-based qPCR using the QuantiTect SYBR Green PCR kit (Qiagen). Melting curve analysis confirmed the specificity of each reaction. […] Quantification was performed using the standard curve method. […]
Adult microglial cell isolation was carried according to the methods of Cardona et al., 2006, and cells were processed for RNA isolation or flow cytometry. […] Purity of the microglial preparation was determined in separate experiments by labeling ˜10^5 cells/ml with phycoerythrin (PE)-conjugated hamster anti-mouse CD11b or IgG isotype control (1:100; eBioscience, San Diego, Calif.) for 30 minutes on ice. […] Flow cytometry was performed on a LSR II (BD Biosciences), and data analyzed with FlowJo 7.2.2 software. […]

COCc1ccccc1CC[C@H](O)/C=C/[C@H]1[C@H](O)CC(=O)[C@@H]1SCCCSCC(=O)O [AE1-329]
LPS-induced NO production, dose response ([1]; BV-2 cells, 1, 10, 100 and 1000 nM AE1-329, 24 hours): dose-dependently reduced NO production | nitrite concentration ([1]; BV-2 cells, LPS 10 ng/ml + 10 nM AE1-329, 24 hours (LPS alone 21.76 μM)): 6.57 µM | decrease of LPS-induced NO production (nitrite) ([1]; BV-2 cells, LPS 10 ng/ml, 10 nM AE1-329, 24 hours): 68.9% | selectivity for the EP4 receptor [2]: selectivity for the EP4 receptor has been previously established | LPS-induced microglial COX-2, iNOS, IL-6, TNF-α and gp91phox expression [3]: significantly reduced
